Entries after “also recorded” stand apart in the source; their conditions may differ.
Legend:
[1] = test system: S6 activation; experiment: S6 activation in Tsc1-deficient astrocytes; format: cell-based
Source text: FIG. 8 depicts images showing that Rheb pharmacologic inhibition blocks mTOR pathway activation in Tsc1-deficient, but not neurofibromin 1 deficient, astrocytes.
In each case, the abnormal Tsc1^−/− and neurofibromin 1^−/− astrocyte phenotypes were reversed by mTOR inhibition (rapamycin treatment). […] These studies provide preliminary evidence for a TSC/Rheb-independent mechanism.

[2] = test system: mTOR pathway activation (S6 phosphorylation); experiment: S6 phosphorylation (mTOR pathway activation) in neurofibromin 1 deficient astrocytes, phospho-specific antibodies; format: cell-based, mouse; conditions: Nf1-/- astrocytes; concentration not given
Source text: Evidence exists for direct activation of mTOR signaling by Akt as well as indirect activation of mTOR by Akt through the tuberous sclerosis complex (TSC)/Rheb pathway. Studies have shown that the mTOR activation resulting from neurofibromin loss in astrocytes can be reversed by restoring NF1-GAP activity (NF1 GRD), blocking K-RAS activity (K-RASN17), or inhibiting PI-3K activation of Akt.

CSCC[C@H](NC(=O)c1ccc(NC[C@@H](N)CS)cc1-c1ccccc1)C(=O)O [FTI-276]
S6 activation [1]: effectively blocks S6 activation; also recorded: reduced S6 activation | S6 activation / phosphorylation (mTOR pathway activation) [2]: did not reduce S6 hyperactivation; also recorded: no effect on S6 activity

From patent publication US8101606B2, “Neurofibromin pathway modulators” (Washington University, priority 2007, dated 2012)
